# Measurements as given in patent US8415312B2, “Compound which is a nystatin derivative” (Biosergen AS, priority 2007, dated 2013).
# Where “and” joins values, the source holds several entries; their conditions need not be identical. Equal values may be shown once.
# Assays:
# [1] = test system: Candida albicans ATCC 14053; experiment: Antifungal susceptibility study (1), broth microdilution MIC; format: cell-based; details: lowest concentration preventing any visible growth, read at 48 hours, 35° C., RPMI 1640 pH 7.0
# Outline: (§1)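 Broth microdilution in test medium at pH 7.0 with two-fold compound dilutions (DMSO stocks diluted 50-fold into medium), inoculated with freshly grown yeast cultures. Plates were incubated without agitation at 35° C. for C. albicans or 25° C. for C. humicolus. MIC was taken as the concentration with no visible growth, read at 48 hours.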
# [2] = test system: Cryptococcus humicolus ATCC 9949; experiment: as above; format: cell-based; details: lowest concentration preventing any visible growth, read at 48 hours, 25° C., RPMI 1640 pH 7.0
# Outline: as §1
# [3] = test system: Aspergillus niger ATCC 16404; experiment: as above; format: cell-based; details: lowest concentration preventing any visible growth, read at 48 hours, 35° C., RPMI 1640 pH 7.0
# Outline: (§2)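 Broth microdilution was run at pH 7.0 with compounds diluted from DMSO solutions and mixed 1:1 with conidial inoculum. Spore suspensions were adjusted to OD530 0.09-0.11 for A. niger or 0.15-0.17 for F. oxysporum, then diluted 1:50. Plates were incubated at 35° C without agitation, and MIC was read at 48 hours as absence of visible growth.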
# [4] = test system: Fusarium oxysporum VKM F-140; experiment: as above; format: cell-based; details: lowest concentration preventing any visible growth, read at 48 hours, 35° C., RPMI 1640 pH 7.0
# Outline: as §2
# human blood erythrocytes = experiment: In vitro toxicity study, haemolysis (Table 10); format: cell-based; details: for Haemolysis of human blood erythrocytes: individual blood samples # 1-3
# [5] = test system: yeasts and filamentous fungi (moulds); experiment: Antifungal susceptibility study (1), overall comparison across the test organisms; format: cell-based; details: Table 5 MICs
# Experimental: The organisms used for susceptibility testing were: Candida albicans ATCC 14053, Cryptococcus humicolus ATCC 9949, Aspergillus niger ATCC 16404 and Fusarium oxysporum VKM F-140 (=CMI, IMI 90473). Organisms were stored on potato dextrose agar […] 50% glycerol solution at -70° C. For short-term storage, stock cultures were stored on agar […] 4° C. The cultures of yeasts were sub-cultured onto Sabouraud dextrose (SAB) agar and incubated for 24 hours at 35° C. (Candida albicans) or for 48 hours at 25° C. (Cryptococcus humicolus) to obtain a freshly grown pure culture. The cultures of moulds were sub-cultured onto potato dextrose agar and incubated for 7 days at 35° C. […] (Fusarium oxysporum) to ensure maximum sporulation. Sterile 96-well flat-bottomed microtitration plates were used for testing. 100 μl of diluted inocula were dispensed into each microdilution well containing 100 μl of the double dilutions of compounds. Drug-free and yeast/mould-free controls were included. Microdilution trays were incubated at 35° C. (Candida albicans and moulds) or 25° C. (Cryptococcus humicolus) without agitation and observed for the presence or absence of visible growth. […] Minimal inhibitory concentrations (MICs) were read at 48 hours.
# [6] = test system: Candida albicans ATCC 10231; experiment: Antifungal susceptibility study (2), MIC50 by OD490 growth; format: cell-based; details: 50% growth inhibition from regression curve, M19 medium without NaCl, 30° C.
# Experimental: The anti-fungal activity of several of the nystatin derivatives was further investigated. […] The anti-fungal activity of a number of the nystatin derivatives was therefore determined in a method which is designed to be more sensitive.
# The test organism used for the further testing of polyene macrolide bioactivity was Candida albicans ATCC 10231, grown in 120 μl of standard M19 medium without NaCl (with an inoculum of 1000 cfu per well) and 30 μl of diluted polyene macrolide samples. The antibiotics were diluted in MeOH in series ensuring a spectrum of concentrations which yielded results ranging from complete growth inhibition to no inhibition of the test organism. The test organism cultures with antibiotic dilutions were incubated in 96-well microtiter plates at 30° C. without shaking, and growth was measured as OD490 after 12, 14 and 16 hours on a SpectraMax Plus microtiter plate reader. OD was plotted against antibiotic concentration, and MIC50 was estimated from the regression curve at 50% growth inhibition.
# erythrocytes = experiment: In vitro toxicity study, haemolysis (Tables 11 and 12); format: cell-based, horse
# Experimental: The toxicity of various nystatin derivatives was tested at 2 and 5 μg/mL and at 25 μM.
# Compounds were dissolved in DMSO at 5 mg/mL and 0.1 mL samples with different concentrations were prepared in DMSO. The samples were mixed with 0.9 mL PBS buffer containing 2.5% horse blood (PBS-HB; kept on ice) and incubated at 37° C. for 30 min without agitation.
# Cells were pelleted by centrifugation at 5000 rpm for 5 min and haemolysis was evaluated by measuring OD545. 100% haemolysis was defined as the OD545 value obtained from a suspension of 2.5% horse blood in distilled water.
SMILES,MIC Candida albicans ATCC 14053 [1] [mg/L],MIC Cryptococcus humicolus ATCC 9949 [2] [mg/L],MIC Aspergillus niger ATCC 16404 [3] [mg/L],MIC Fusarium oxysporum VKM F-140 [4] [mg/L],"Haemolysis of human blood erythrocytes, MEAN ± SE (human blood erythrocytes; 2 μg/mL) [%]",Haemolysis of human blood erythrocytes (human blood erythrocytes; 2 μg/mL),"Haemolysis of human blood erythrocytes, MEAN ± SE (human blood erythrocytes; 5 μg/mL) [%]",Haemolysis of human blood erythrocytes (human blood erythrocytes; 5 μg/mL),anti-fungal activity compared with Amphotericin B and S44HP [5],MIC50 [6] [mg/L],"Haemolysis of erythrocytes, Mean ± SE (erythrocytes; 5 μg/mL (Table 11)) [%]","Haemolysis of erythrocytes (erythrocytes; 5 μg/mL, individual blood samples # 1-3 (Table 11))"
COC(=O)C(CO)NC(=O)C1C(O)CC2(O)CC(O)C(O)CCC(O)CC(O)CC(O)CC(=O)OC(C)C(C)C(O)C(C)C=CC=CC=CC=CC=CC=CC=CC(OC3OC(C)C(O)C(N)C3O)CC1O2 (mixture of isomers) [Compound 14],1,1,2,4,2.5 ± 0.07,2.7% and 2.5% (2×),4.9 ± 0.2,4.8% and 4.5% and 5.3%,comparable anti-fungal activity to Amphotericin B and S44HP,,,
CC1C=CC=CC=CC=CC=CC=CC=CC(OC2OC(C)C(O)C(N)C2O)CC2OC(O)(CC(O)C(O)CCC(O)CC(O)CC(O)CC(=O)OC(C)C(C)C1O)CC(O)C2C(=O)NC1C(O)OC(CO)C(O)C1O (stereo not shown) [Compound 16],1,1,2,8,2.4 ± 0.12,2.3% and 2.2% and 2.6%,3.1 ± 0.14,3.1% and 2.9% and 3.4%,,,,
CC1C=CC=CC=CC=CC=CC=CC=CC(OC2OC(C)C(O)C(N)C2O)CC2OC(O)(CC(O)C(O)CCC(O)CC(O)CC(O)CC(=O)OC(C)C(C)C1O)CC(O)C2C(=O)NCCCO (stereo not shown) [Compound 12],1,1,2,2,,,,,comparable anti-fungal activity to Amphotericin B and S44HP,0.14,4.4 ± 0.3,5% and 4.3% and 4.0%
CC1C=CC=CC=CC=CC=CC=CC=CC(OC2OC(C)C(O)C(N(CCCN)CCCN)C2O)CC2OC(O)(CC(O)C(O)CCC(O)CC(O)CC(O)CC(=O)OC(C)C(C)C1O)CC(O)C2C(=O)O (stereo not shown) [Compound 22],1,1,1,1,,,,,comparable anti-fungal activity to Amphotericin B and S44HP,0.07,,
